Measurements as given in patent publication US20040229791A1, “Compositions and methods of modulating TGF-beta activity by fatty acids” (priority 2002, published 2004).

What was measured:
TGF-β1-α2M* complex = target: T1, TGF-β1-α2M* complex (Homo sapiens, UniProt P01023); experiment: Inhibition of 125I-TGF-β1 and α2M* complex formation (5% non-denaturing PAGE, autoradiography); assay type: binding; details: ~1 nM 125I-TGF-β1, 10 μg α2M* in 0.05 ml, 30 min room temperature, non-denaturing PAGE; read-out: IC50 for inhibiting complex formation between TGF-β1 and α2M*
T1 construct: was purified from pooled citrate-treate human plasma; from tissue; host or cells: pooled citrate-treated human plasma
T1 sequence (P01023 24-1474): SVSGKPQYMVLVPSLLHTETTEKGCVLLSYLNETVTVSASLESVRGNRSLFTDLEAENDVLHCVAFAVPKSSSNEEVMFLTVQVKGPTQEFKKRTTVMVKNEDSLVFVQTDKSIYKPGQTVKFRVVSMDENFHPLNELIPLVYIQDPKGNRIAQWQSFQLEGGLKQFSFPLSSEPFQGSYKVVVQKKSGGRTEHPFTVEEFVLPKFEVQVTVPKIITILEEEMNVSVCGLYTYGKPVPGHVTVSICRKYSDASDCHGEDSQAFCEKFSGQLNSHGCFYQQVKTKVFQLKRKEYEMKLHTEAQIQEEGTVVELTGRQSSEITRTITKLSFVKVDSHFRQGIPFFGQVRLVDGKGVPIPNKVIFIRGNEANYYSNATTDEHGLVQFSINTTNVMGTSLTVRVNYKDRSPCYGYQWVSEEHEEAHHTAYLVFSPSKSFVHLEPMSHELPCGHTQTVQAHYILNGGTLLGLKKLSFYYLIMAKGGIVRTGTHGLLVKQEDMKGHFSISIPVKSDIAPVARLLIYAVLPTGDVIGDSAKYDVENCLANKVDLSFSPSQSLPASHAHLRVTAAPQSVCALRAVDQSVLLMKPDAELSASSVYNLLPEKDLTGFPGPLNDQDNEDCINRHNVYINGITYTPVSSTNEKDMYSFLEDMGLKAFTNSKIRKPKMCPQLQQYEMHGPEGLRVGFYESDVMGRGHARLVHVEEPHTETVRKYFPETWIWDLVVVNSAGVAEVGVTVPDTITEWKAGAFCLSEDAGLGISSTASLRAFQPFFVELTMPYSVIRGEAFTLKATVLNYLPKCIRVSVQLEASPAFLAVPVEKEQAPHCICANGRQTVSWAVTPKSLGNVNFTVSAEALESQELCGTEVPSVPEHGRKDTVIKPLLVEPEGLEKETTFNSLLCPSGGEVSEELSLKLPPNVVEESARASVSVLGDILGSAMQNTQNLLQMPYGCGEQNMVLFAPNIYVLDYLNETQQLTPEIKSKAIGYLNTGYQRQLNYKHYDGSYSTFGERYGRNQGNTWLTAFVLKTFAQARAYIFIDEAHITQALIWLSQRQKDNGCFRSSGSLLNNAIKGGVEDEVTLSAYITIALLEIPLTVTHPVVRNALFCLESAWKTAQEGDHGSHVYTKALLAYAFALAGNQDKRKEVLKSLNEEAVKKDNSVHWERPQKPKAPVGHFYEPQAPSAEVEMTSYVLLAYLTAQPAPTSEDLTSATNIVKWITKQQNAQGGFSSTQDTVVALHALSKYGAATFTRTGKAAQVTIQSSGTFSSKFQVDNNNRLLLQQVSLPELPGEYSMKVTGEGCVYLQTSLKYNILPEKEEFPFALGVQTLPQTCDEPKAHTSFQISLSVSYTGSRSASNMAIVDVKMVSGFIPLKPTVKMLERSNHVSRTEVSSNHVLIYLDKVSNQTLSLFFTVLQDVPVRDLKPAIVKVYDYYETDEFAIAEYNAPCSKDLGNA
Description: Saturated and unsaturated fatty acids are present in plasma and tissues (25,26). The effects of various concentrations of saturated fatty acids on the formation of complexes between ^125I-TGF ? β1 and ? 2M* were examined. ^125I-TGF- ? 1 (1 nM) was incubated μg/ml) in the presence of various concentrations of n-caprylic acid ([…]), lauric acid (12 carbon atoms), myristic acid (14 carbon atoms), palmitic acid (16 carbon atoms) and stearic acid (18 carbon atoms). After 30 min at room temperature, the reaction mixture was analyzed by 5% non-denaturing PAGE and autoradiography, a standard method form determining complex formation between TGF-β and α2M* (12). […] At 100 μM, it inhibited 20% of the complex formation between TGF ? β1 and α2M*. Esterification consistently abolished the inhibitory activities of the fatty acids.
Complex formation of ^125I-TGF-β and ? 2M*—The reaction mixture contained 10 μg of . α2M*, ˜1 nM of ^125I-TGF- ? 1, ^125I-TGF ? β2 or ^125I-TGF ? acids (dissolved in 100% ethanol) in 0.05 ml of 50 mM HEPES-NaOH buffer, pH 7.4. The final concentration of ethanol in the reaction mixture was 0.5%. These fatty acids and fatty acid derivatives were soluble under the experimental conditions. After 30 min at room temperature, the complex formation of ^125I-TGF- ? and. α2M* was determined by 5% non-denaturing polyacrylamide gel electrophoresis (PAGE) or by 7.5% SDS-PAGE following cross-linking by 0.6 mM DSS. After electrophoresis, the gel was stained with Coomassie blue and analyzed by autoradiography. The ^125I-TGF- ? - ? 2M* complex which co-migrated with free ? 2M* was quantified using a PhosphoImager (Fuji).

TGF-β2-α2M* complex = target: T2, TGF-β2-α2M* complex (Homo sapiens, UniProt P01023); experiment: Inhibition of 125I-TGF-β2 and α2M* complex formation (5% non-denaturing PAGE); assay type: binding; details: 30% inhibition
T2 construct: was purified from pooled citrate-treate human plasma; from tissue; host or cells: pooled citrate-treated human plasma
T2 sequence (P01023 24-1474): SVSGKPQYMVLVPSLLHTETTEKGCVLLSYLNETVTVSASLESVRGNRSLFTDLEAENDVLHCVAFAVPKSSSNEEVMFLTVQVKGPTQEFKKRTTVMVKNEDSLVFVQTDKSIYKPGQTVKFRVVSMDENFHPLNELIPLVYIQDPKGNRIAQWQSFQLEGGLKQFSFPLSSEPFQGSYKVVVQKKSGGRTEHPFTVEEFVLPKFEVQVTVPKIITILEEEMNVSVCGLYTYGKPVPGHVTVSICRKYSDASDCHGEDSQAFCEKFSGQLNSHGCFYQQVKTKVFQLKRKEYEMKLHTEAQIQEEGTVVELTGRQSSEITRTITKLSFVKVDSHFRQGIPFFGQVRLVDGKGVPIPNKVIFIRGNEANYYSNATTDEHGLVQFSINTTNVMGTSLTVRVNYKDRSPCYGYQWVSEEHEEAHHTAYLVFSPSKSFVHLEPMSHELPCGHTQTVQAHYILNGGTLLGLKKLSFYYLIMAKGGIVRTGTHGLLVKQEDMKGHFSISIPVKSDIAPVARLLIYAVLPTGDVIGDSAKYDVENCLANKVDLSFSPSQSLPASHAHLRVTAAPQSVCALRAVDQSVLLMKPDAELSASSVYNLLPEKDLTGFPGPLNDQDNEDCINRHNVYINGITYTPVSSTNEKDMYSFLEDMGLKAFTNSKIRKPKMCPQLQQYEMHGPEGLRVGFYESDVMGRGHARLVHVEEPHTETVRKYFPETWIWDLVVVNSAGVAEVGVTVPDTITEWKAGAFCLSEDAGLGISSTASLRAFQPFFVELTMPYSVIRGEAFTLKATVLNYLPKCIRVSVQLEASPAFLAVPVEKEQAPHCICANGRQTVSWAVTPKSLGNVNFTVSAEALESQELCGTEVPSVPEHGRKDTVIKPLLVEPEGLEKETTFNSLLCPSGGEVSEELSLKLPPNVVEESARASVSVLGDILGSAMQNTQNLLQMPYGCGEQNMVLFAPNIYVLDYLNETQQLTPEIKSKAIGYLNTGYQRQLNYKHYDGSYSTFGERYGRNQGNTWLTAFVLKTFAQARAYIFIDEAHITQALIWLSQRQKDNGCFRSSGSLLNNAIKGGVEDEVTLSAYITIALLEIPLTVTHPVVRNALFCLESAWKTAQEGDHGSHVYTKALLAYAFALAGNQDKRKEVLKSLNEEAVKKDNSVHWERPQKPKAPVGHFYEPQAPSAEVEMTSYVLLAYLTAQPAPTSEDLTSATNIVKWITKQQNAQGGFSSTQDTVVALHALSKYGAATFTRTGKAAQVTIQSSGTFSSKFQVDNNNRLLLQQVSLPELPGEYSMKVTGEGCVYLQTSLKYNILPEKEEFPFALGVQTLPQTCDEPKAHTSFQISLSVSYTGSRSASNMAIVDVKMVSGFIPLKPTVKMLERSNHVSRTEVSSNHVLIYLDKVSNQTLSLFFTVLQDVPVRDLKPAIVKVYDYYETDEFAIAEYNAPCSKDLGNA
Description: TGF- ? isoforms bind to α2M* with different affinities: TGF ? β2>TGF ? β1 ( active sites of TGF ? β1 and TGF- ? 2 responsible for high-affinity binding to ? 2M* are disti from the low-affinity ? 2M* binding site in TGF- ? 3 (19). To determine if fatty acids differentially affect the binding of TGF- ? isoforms to ? 2M*, the effects of various concentrations of arachidonic acid and myristic acid on complex formation of ^125I-labeled TGF ? β isoforms and ? 2M were determined*. […] It inhibited 30% of the complex form . α2M* and TGF ? β2 and TGF ? β3 at 100 and >250 μM, respectively. Arachidon polyunsaturated fatty acid, was a stronger inhibitor of complex formation of ? 2M* and TGF-.β2/TGF ? β3. It inhibited 50% of the complex formation of ? 2M* and ^125I-TGF- ? 2 at 50 μM (FIG. 3A). The observation that myristic acid and arachidonic acid inhibited complex formation of ^125I-TGF- ? […] 2M* complexes in the reaction mixtures were then analyzed by 7.5% SDS-PAGE and autoradiography.
Complex formation of ^125I-TGF-β and ? […] After 30 min at room temperature, the complex formation of ^125I-TGF- ? and. α2M* was determined by 5% non-denaturing polyacrylamide gel electrophoresis (PAGE) or by 7.5% SDS-PAGE following cross-linking by 0.6 mM DSS. After electrophoresis, the gel was stained with Coomassie blue and analyzed by autoradiography. […] 2M* was quantified using a PhosphoImager (Fuji).

CCCCCCCCCCCCCC(=O)O [myristic acid]
IC50 (TGF-β1-α2M* complex): 9.1 µM
concentration that inhibited 30% of the complex formation of α2M* and TGF-β2 (TGF-β2-α2M* complex): 100 µM
